Reference: patent publication US7025992B2, “Pharmaceutical formulations” (priority 2001, dated 2006)
Entries after “also recorded” stand apart in the source; their conditions may differ.

Legend:
[1] = stated as known; cited from earlier work
[2] = Absorption (AUC) of cannabinoid and primary metabolite in blood after dosing; details: after oropharyngeal (buccal) administration compared with sublingual
[3] = Solubility of cannabinoids
[4] = target: CB1 (Brain receptors) (Homo sapiens, UniProt P21554); details: cited from earlier work
[5] = Stability on storage, assay as percentage of initial value; assay type: physicochemical; details: for stability in the formulation (in words): conclusion from Table 5
From the text: The data are reported as percentage of initial assay value.

[6] = Table 3; Brown, 1998; cited from earlier work
[7] = CBD given before THC, cognitive effects; assay type: in vivo; details: CBD (or CBDV) administered before THC; not observed if THC is given before CBD
[8] = Pain relief, THC alone vs extract of cannabis; assay type: in vivo; details: THC alone vs same quantity of THC given as an extract of cannabis
[9] = Table 3 footnote; naïve patients may show postural hypotension, hypertension reported on prolonged usage; cited from earlier work
[10] = Table 3 footnote; cited from earlier work
[11] = Analgesic effect of THCV vs THC; assay type: in vivo; details: compared with THC
[12] = Subject reports on THCV (mood enhancement, hangover); assay type: in vivo; details: compared with THC

Sequence of CB1 (Brain receptors) (P21554 whole entry, species assumed): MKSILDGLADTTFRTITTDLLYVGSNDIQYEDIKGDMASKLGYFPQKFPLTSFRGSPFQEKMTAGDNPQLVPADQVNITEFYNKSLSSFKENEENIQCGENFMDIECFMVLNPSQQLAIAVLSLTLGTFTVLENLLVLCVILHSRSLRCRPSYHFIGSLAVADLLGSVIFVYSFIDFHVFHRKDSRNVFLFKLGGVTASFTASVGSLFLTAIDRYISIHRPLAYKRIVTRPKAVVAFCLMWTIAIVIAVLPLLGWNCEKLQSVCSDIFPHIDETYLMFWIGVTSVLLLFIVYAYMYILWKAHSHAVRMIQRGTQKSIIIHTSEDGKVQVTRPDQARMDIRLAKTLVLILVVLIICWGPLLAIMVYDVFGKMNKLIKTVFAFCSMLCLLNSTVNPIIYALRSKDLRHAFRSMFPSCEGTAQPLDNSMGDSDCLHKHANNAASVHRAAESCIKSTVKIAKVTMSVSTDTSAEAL

## CCCCCc1cc(O)c2c(c1)OC(C)(C)[C@@H]1CCC(CO)=C[C@@H]21 [11 OH THC]
[1]
  psychoactivity relative to parent compound: possibly more psychoactive than the parent compound
[2]
  reduction in the amount of 11 OH metabolite detected: approximately 25%

## C=C(C)[C@@H]1CCC(C)=C[C@H]1c1c(O)cc(CCCCC)cc1O [CBD, cannabidiol]
[3]
  solubility in aqueous excipients: very low solubility
[4]
  CB1 (Brain receptors): ∀
[5]
  stability in the formulation (in words): good stability
[5]; observation of the applicants
  effect as pharmaceutical stabilizer: able to act as a pharmaceutical stabilizer of pharmaceutical formulations and thus prolong shelf-life
[6]
  Anti-inflammatory: ∀
[7]
  psychoactive effects of THC: diminished
  subsequent sedation: postponed and mitigated

## C=C(C)[C@@H]1CCC(C)=C[C@H]1c1c(O)cc(CCC)cc1O [CBDV, cannabidivarin]
[7]
  psychoactive effects of THC: diminished
  subsequent sedation: postponed and mitigated

## CCCCCc1cc(O)c2c(c1)OC(C)(C)[C@@H]1CCC(C)=C[C@@H]21 [THC, Δ^9-tetrahydrocannabinol]
[3]
  solubility in aqueous excipients: very low solubility
[3]; aerosol sprays containing ethanol plus a propellant
  amount of THC that could be stabilised: 0.7 mg of THC per 0.1 ml of liquid formulation
[5]
  stability in the formulation (in words): less stable
[8]
  degree of pain relief: lower degree of pain relief than the same quantity of THC given as an extract of cannabis
[6]
  Anti-inflammatory: ∀
[9]
  effect on blood pressure (footnote ′): ′ THC has a biphasic effect on blood pressure; in naïve patients it may produce postural hypotension and it has also been reported to produce hypertension on prolonged usage. GW Internal Report No 002/000159.
[10]
  convulsant effect (footnote H to Anticonvulsant): H THC is pro convulsant

## CCCc1cc(O)c2c(c1)OC(C)(C)[C@@H]1CCC(C)=C[C@@H]21 [THCV, tetrahydrocannabinovarin]
[11]
  analgesic effect, speed: more rapid analgesic effect than THC
[12]
  hangover: less severe hangover; also recorded: reduced potential for hangover
[12]; reported by subjects taking THCV
  mood enhancement: less disturbing than that produced by THC
